Measurements as given in publication PMC5650337, “A peptidomimetic with a chiral switch is an inhibitor of epidermal growth factor receptor heterodimerization” (Oncotarget, 2017).
Read-outs that look alike come from different tables or passages of the source. Where a SMILES comes first, the peptide text is derived from it.

Assays:
[1] = tested on: SKBR-3 cells
Description: (§3) Cellular assays were performed using BT-474, SKBR-3, Calu-3, MCF-7, and MCF-10A cells (ATCC). Antiproliferative activity was measured by CellTiter-Glo®, [49] a luminescence-based cell viability assay. In a 96-well plate, 1 × 10^4 cells/well were seeded and incubated overnight at 37°C and 5% CO2. Stock solutions of peptidomimetics were prepared by dissolving 1.5 mg/mL of compounds in DMSO. Stock solution of the compounds were diluted using the serum-free medium to prepare solutions of different concentrations of compounds. Compounds in the medium were added to the wells in triplicate and incubated for 72 h. As controls, cells treated with 1% sodium dodecyl sulfate and 1% dimethyl sulfoxide were used. At the end of the experiment, CellTiter-Glo® reagent was added, and luminescence was measured by a plate reader. A dose response curve was generated using luminescence vs concentration of compounds and IC50 values were obtained using Prism® (GraphPad Software, La Jolla, CA). Experiments were repeated at least three times to obtain standard deviation values.

[2] = tested on: BT-474 breast tumors; assay: Xenograft model of breast cancer; type: in vivo, athymic nude mice; details: BT-474 xenograft, 19 days; 18 and 9 4 mg/kg twice a week intratumor; lapatinib 10 mg/kg once a week i.p.
Description: All animals were handled according to the approved protocol from IACUC at the University of Louisiana at Monroe. Athymic nude mice (Foxn1nu/Foxn1+, female, 4–5 weeks) were purchased from Harlan Laboratories (Indianapolis, IN) and maintained in the ULM School of Pharmacy vivarium. After acclimatization of animals to the local environment, estrogen (17β-estradiol) pellets (0.72 mg, 90-day release) were implanted subcutaneously in the mice, under anesthesia. Tumors were induced in mice as described previously. Orthotopic injection of about three-million BT-474 cells suspended in the serum-free RPMI-1640 medium was done at the second left mammary fat pad. Mice were observed every day for tumor formation, and the tumor diameter was measured with calipers, and the tumor volume was calculated. When a tumor diameter of 3 mm was achieved, mice were randomly assigned to four groups of six. These groups contain negative control (vehicle control), positive control (lapatinib), and two treatment groups (compound 9 and 18). The mice were treated for 19 days. Compound 18 was administered near the base of the tumor at a dose of 4 mg/kg twice a week. Control groups received intratumor saline injections twice a week, and lapatinib was administered at 10 mg/kg once a week by intraperitoneal injection. The marker to end the experiments was based on tumor doubling time rather than tumor volume. Since tumor doubling time was 4 times in 19 days, experiments were stopped on the 19th day. Tumor-bearing mice were sacrificed, and three tumors per group were harvested and maintained at –80°C and the remaining three tumors were fixed in paraffin blocks. Microsections (5 µm) of paraffin fixed tumors were stained with hemotoxylin and eosin (H&E) and observed for necrosis by a pathologist. All data are presented as the mean ± SE. Statistical differences were evaluated by Mann-Whitney U test as well as one-way ANOVA analysis of data from different groups, and the criterion for statistical significance was p < 0.05.

[3] = tested on: HER2 phosphorylation in tumor samples; assay: Western blot of xenograft tumor samples; type: in vivo, athymic nude mice; details: treated tumors compared to control
Description: (§1) Western blot and PLA assay were carried out on tumor sections as described before. Immunoblot analysis was performed to evaluate the levels of total HER2 and phosphorylated HER2. Tumor sections were deparaffinized using xylene and rehydrated with decreasing concentrations of ethanol. Antigen retrieval on the microsections of the breast tumors was done in a steaming sodium citrate buffer (10 mM, 0.05% Tween-20, pH 6.0) for 5 min. The tumor sections were then used to analyze inhibition of HER2:HER3 dimerization using PLA.

[4] = target: domain IV of HER2 (Homo sapiens, UniProt P04626); assay: Surface plasmon resonance analysis; type: binding; details: protein immobilized on CM5 chip
Chain of domain IV of HER2 (P04626 511-652 limits assumed): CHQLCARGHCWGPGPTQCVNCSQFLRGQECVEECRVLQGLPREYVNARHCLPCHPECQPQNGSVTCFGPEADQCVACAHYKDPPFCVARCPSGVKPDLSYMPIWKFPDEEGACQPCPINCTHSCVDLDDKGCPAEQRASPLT
Description: (§2) Surface plasmon resonance analysis was performed using GE X100. Extracellular domains of proteins HER2, EGFR, HER3, and HER4 purchased from Leinco Technologies (St. Louis, MO). […] Compound 18 and controls were used as analytes. Compound 18 at different concentrations (0 to 200 µM) was passed through an SPR chip, and binding kinetics were analyzed for each of the EGFR bindings. A blank subtracted sensorgram for compound 18 was represented.

[5] = target: T1, EGFR (Homo sapiens, UniProt P00533); assay: Surface plasmon resonance analysis; type: binding; details: data not shown
T1 construct: Extracellular domains of proteins HER2, EGFR, HER3, and HER4 purchased from Leinco Technologies; purchased Leinco Technologies (St. Louis, MO)
T1 sequence (P00533 25-645 limits assumed): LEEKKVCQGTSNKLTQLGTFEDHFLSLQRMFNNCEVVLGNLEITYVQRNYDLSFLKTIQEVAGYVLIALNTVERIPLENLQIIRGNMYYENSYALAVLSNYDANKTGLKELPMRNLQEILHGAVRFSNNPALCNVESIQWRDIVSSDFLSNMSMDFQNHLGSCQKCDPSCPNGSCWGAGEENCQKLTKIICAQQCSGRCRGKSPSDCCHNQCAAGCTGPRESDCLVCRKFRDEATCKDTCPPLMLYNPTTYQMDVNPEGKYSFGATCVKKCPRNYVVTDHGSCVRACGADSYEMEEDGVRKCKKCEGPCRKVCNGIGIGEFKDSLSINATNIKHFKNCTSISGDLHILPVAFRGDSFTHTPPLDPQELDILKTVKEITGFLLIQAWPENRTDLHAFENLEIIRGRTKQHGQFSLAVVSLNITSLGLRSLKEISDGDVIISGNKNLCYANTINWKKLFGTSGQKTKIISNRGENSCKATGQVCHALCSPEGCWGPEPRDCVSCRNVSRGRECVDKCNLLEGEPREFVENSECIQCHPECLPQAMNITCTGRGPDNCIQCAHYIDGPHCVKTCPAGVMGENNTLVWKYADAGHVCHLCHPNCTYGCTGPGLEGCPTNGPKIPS
Description: as §2

[6] = target: T2, HER3 (Homo sapiens, UniProt P21860); assay: Surface plasmon resonance analysis; type: binding; details: data not shown
T2 construct: Extracellular domains of proteins HER2, EGFR, HER3, and HER4 purchased from Leinco Technologies; purchased Leinco Technologies (St. Louis, MO)
T2 sequence (P21860 20-643 limits assumed): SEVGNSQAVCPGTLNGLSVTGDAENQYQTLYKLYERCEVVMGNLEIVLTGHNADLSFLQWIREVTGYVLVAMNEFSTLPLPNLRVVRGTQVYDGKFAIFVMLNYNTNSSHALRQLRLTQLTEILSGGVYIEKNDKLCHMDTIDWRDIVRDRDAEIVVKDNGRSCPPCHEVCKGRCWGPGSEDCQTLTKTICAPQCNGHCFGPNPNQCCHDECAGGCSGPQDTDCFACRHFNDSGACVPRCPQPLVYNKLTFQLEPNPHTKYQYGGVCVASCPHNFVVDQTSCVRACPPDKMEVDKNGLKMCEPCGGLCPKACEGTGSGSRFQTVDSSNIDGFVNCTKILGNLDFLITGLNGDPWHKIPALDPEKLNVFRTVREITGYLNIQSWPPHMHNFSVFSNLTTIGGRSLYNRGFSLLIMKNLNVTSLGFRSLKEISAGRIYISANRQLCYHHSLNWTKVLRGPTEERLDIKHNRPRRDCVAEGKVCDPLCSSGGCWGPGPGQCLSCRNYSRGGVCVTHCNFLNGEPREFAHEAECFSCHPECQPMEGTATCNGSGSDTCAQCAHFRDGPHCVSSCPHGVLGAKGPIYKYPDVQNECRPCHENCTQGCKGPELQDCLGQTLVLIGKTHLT
Description: as §2

[7] = target: T3, HER4 (Homo sapiens, UniProt Q15303); assay: Surface plasmon resonance analysis; type: binding; details: data not shown
T3 construct: Extracellular domains of proteins HER2, EGFR, HER3, and HER4 purchased from Leinco Technologies; purchased Leinco Technologies (St. Louis, MO)
T3 sequence (Q15303 26-651 limits assumed): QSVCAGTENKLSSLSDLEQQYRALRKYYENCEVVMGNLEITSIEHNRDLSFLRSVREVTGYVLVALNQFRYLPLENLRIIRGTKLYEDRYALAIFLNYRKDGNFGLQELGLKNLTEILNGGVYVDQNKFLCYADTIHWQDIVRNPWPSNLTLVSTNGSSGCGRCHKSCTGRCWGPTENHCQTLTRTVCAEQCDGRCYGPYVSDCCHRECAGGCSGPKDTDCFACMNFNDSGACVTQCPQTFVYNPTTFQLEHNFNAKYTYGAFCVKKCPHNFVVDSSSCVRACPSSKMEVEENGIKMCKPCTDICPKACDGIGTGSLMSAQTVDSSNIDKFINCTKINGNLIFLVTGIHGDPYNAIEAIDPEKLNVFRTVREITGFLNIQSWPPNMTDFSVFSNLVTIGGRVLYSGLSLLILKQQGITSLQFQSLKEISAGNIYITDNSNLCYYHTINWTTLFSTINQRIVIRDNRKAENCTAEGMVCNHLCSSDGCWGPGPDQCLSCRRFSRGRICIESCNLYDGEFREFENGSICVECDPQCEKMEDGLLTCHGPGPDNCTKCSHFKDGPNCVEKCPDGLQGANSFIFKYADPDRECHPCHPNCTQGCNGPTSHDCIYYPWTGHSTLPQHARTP
Description: as §2

[8] = target: T4, HER2 ECD (domains I to IV) (Homo sapiens, UniProt P04626); assay: Surface plasmon resonance analysis; type: binding
T4 construct: Extracellular domains of proteins HER2, EGFR, HER3, and HER4 purchased from Leinco Technologies; purchased Leinco Technologies (St. Louis, MO)
T4 sequence (P04626 23-652 limits assumed): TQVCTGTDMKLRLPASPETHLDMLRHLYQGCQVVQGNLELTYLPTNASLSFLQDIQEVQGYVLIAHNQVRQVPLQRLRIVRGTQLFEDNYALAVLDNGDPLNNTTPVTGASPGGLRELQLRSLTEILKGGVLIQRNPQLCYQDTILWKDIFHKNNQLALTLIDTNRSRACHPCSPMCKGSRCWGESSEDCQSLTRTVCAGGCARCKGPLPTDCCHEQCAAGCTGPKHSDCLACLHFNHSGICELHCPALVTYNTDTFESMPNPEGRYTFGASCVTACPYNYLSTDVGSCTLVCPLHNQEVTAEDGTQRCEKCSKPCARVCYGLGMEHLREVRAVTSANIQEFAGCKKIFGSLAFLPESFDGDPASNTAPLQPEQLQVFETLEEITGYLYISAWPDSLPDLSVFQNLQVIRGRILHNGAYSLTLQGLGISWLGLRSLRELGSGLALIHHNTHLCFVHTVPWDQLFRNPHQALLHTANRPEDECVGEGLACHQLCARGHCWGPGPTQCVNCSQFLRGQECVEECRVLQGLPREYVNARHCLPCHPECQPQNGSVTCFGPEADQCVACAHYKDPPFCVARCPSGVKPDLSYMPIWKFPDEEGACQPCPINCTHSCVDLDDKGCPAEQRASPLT
Description: as §2

[9] = tested on: Calu-3 cells; details: read-out: IC50 Calu-3 (+); HER2-overexpressing lung cancer cells, 72 h
Description: as §3

[10] = target: T5, HER2:HER3 heterodimerization in tumor sections (Homo sapiens, UniProt P04626); assay: PLA on xenograft tumor sections; type: in vivo, athymic nude mice
T5 construct: from tissue; host or cells: BT-474 xenograft tumours grown in athymic nude mice
T5 sequence (P04626 23-1255, one chain of several): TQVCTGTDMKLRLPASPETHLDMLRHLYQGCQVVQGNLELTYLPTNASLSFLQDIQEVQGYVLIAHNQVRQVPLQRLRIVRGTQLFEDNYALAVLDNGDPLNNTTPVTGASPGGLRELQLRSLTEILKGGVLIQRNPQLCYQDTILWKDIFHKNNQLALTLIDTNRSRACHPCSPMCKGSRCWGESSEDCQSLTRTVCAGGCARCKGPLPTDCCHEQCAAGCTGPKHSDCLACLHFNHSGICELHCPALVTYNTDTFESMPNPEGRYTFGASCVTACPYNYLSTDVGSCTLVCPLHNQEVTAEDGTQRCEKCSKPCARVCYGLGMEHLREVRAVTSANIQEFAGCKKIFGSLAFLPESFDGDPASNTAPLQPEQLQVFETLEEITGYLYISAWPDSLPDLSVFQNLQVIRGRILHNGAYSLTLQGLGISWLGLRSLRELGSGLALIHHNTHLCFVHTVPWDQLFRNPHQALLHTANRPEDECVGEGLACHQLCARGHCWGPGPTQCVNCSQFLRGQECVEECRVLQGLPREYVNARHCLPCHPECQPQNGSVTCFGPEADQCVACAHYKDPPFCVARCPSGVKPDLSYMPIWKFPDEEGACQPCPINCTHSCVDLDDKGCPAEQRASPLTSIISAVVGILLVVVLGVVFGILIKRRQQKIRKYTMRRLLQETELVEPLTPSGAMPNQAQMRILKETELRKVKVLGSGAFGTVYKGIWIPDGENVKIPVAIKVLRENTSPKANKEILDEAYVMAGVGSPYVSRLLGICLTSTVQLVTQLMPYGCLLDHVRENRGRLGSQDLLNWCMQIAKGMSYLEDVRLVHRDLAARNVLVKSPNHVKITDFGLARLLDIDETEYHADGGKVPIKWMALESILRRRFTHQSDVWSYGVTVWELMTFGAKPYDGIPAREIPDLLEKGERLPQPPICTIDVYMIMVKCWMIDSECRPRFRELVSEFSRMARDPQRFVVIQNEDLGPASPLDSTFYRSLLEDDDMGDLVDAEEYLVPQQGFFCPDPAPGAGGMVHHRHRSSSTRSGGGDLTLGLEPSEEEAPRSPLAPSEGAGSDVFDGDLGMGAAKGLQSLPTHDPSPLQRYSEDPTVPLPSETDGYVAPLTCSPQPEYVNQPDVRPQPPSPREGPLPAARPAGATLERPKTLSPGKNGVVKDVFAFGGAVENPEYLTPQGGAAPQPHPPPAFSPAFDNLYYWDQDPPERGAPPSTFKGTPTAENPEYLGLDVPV
Description: as §1

What does the source list for N=C(N)NCCC[C@@H]1NC(=O)[C@H]2CCCN2C(=O)[C@@H]2CCCN2C(=O)[C@H](CCCNC(=N)N)NC(=O)C[C@H](c2cccc3ccccc23)NC(=O)[C@H](Cc2ccccc2)NC(=O)[C@H](CC(=O)O)NC(=O)[C@H](CC(=O)O)NC(=O)[C@H](Cc2ccccc2)NC(=O)C[C@H](c2cccc3ccccc23)NC1=O [compound 18, Cyclo(1,10)P^1p^2R^3(R-Anapa)^4F^5D^6D^7F^8(R-Anapa)^9R^10] (HELM PEPTIDE1{P.[dP].R.[O=C(C[C@@H](N[*:1])c1cccc2ccccc12)[*:2]].F.D.D.F.[O=C(C[C@@H](N[*:1])c1cccc2ccccc12)[*:2]].R}$PEPTIDE1,PEPTIDE1,1:R1-10:R2$$$V2.0)?
IC50 ([1]; read-out: Antiproliferative activity (IC50 µM) SKBR-3 cells, Table 2, compound 18 and diastereoisomers): 0.194 ± 0.046 µM; IC50 ([1]; read-out: IC50 SKBR-3(+), HER2-overexpressing breast cancer cells, 72 h): 0.194 ± 0.046 µM; Tumor growth versus vehicle [2]: delay in tumor growth and tumor size; HER2 phosphorylation in tumor samples (Western blot) [3]: decrease in HER2 phosphorylation; SPR binding to HER2 domain IV [4]: concentration-dependent binding; SPR binding to EGFR [5]: did not indicate any significant change in response; SPR binding to HER3 [6]: did not indicate any significant change in response; SPR binding to HER4 [7]: did not indicate any significant change in response; koff ([8]; SPR, 1:1 binding Langmuir fit): 5.97 s⁻¹; kon ([8]; SPR, 1:1 binding Langmuir fit): 4.76e+07 M⁻¹ s⁻¹; Kd ([8]; calculated from kon and koff): 125 nM; SPR binding to HER2 ECD ([8]; protein immobilized on CM5 chip, substance as analyte): concentration-dependent binding; IC50 [9]: 18 ± 13 nM; HER2:HER3 heterodimerization in tumor sections (PLA) [10]: diminished red fluorescence signals
